Source: patent US12473262B2, “Aryl hydrocarbon receptor activators” (Oregon State University, priority 2019, dated 2025)

Molecular target: aryl hydrocarbon receptor (AhR) (Mus musculus (Mouse), UniProt P30561)
Assay: AhR ligand screening: AhRE-luciferase reporter in transfected Hepa1 cells
Assay type: cell-based
Conditions: for Fold @ 1 nM: fold change of luciferase expression at 1 nM test compound relative to vehicle (0.1% DMSO); for Fold @ 100 nM: fold change of luciferase expression at 100 nM test compound relative to vehicle (0.1% DMSO); for Fold @ 10 uM: fold change of luciferase expression at 10 uM test compound relative to vehicle (0.1% DMSO); for Fold relative to benchmark @ 100 nM: luciferase expression at 100 nM test compound relative to 100 nM benchmark compound 11-cl-BBQ
Excerpt: The AhR is a ligand-activated transcription factor that dimerizes with ARNT to regulate gene expression, and genes that are regulated by AhR ligands have AhR response elements (AhRE) in their promotor regions.
Briefly, Hepa1 cells were transfected with a reporter construct consisting of AhRE linked to luciferase. The addition of AhR ligands to the transfected cells induces luciferase production that is directly proportional to the amount of AhR activation. We used this reporter system to identify novel compounds with AhR-activating properties. Transfected Hepa1 cells were plated at a density of 1×10^4 cells/well in 100 μL of cell culture media in 96 well plates and grown overnight. […] Following incubation with the compounds, the media was removed, and cells were harvested with lysis buffer. The lysates were transferred to opaque 96 well plates, where they were assayed well-by-well for luciferase activity by injection of luciferase assay substrate with a 2 sec mixing time and 15 sec integration period on a Tropix TR717 microplate luminometer. Data were expressed as fold induction of luciferase relative to vehicle (0.1% DMSO) treated cells.

aryl hydrocarbon receptor (AhR), sequence (P30561 10-805): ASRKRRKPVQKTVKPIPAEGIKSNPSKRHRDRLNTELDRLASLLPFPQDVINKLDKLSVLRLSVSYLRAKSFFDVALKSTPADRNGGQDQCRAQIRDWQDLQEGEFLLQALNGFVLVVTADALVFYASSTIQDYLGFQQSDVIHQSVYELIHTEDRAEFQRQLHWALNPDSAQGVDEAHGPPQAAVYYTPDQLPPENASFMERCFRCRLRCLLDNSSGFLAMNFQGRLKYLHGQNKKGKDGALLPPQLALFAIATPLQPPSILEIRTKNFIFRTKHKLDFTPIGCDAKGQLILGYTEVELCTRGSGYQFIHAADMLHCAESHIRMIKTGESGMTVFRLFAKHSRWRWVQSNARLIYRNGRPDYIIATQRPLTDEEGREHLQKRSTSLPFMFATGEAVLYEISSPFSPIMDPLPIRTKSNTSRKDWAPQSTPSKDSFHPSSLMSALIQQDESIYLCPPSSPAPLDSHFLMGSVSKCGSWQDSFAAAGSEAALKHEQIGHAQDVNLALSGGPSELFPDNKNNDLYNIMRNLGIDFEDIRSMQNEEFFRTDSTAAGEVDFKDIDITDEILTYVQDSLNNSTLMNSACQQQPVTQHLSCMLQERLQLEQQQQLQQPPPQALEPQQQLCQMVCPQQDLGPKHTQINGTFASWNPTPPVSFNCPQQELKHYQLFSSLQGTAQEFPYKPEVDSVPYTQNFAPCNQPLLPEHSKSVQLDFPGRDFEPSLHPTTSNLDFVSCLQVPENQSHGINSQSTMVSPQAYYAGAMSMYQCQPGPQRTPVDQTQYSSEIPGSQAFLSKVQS
aryl hydrocarbon receptor (AhR), sequence (P53762 whole entry partner): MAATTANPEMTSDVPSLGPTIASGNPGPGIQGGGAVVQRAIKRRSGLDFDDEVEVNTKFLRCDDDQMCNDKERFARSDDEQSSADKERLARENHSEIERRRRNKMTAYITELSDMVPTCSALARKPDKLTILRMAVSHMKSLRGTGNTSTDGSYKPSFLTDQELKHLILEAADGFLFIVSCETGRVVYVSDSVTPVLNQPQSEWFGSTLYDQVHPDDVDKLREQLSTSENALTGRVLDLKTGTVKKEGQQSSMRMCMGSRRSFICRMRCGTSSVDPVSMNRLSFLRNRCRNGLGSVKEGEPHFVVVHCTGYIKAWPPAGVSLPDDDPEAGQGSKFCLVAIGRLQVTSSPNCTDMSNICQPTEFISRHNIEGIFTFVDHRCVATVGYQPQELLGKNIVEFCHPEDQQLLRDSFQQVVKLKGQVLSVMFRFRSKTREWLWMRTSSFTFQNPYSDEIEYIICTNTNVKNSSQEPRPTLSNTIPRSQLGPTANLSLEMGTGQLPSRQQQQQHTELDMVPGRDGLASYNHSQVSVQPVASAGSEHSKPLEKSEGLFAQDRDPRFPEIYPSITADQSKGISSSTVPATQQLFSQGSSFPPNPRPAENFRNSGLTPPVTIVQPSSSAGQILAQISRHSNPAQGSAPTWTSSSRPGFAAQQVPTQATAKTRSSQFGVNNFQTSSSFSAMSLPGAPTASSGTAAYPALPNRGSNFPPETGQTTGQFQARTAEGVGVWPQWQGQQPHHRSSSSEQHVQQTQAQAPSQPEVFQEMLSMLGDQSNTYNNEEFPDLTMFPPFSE

Structure (SMILES)	Fold @ 1 nM	Fold @ 100 nM	Fold @ 10 uM	Fold relative to benchmark @ 100 nM
Cc1ccc(C(=O)n2c(-c3cccc4ccccc34)nc3ccc(Cl)cc32)cc1 [Compound 698]	1 fold	26 fold	30 fold	1 fold
O=C(c1ccc(F)c(F)c1)n1c(-c2cc3ccccc3o2)nc2cc(Cl)ccc21 [Compound 857]	1 fold	12 fold	75 fold	0.41 fold
O=C(c1ccc(F)c(F)c1)n1c(-c2cccc(-c3ccccc3)c2)nc2cc(Cl)ccc21 [Compound 771]	1 fold	1 fold	2 fold	0.04 fold
O=C(c1ccc2nc(-c3cccc4ccccc34)n(S(=O)(=O)c3cccc(F)c3)c2c1)N1CCOCC1 [Compound 1357]	1 fold	1 fold	1 fold	0.03 fold
O=C(c1ccc(F)c(F)c1)n1c(-c2csc3ccccc23)nc2cc(Cl)ccc21 [Compound 861]	1 fold	2 fold	90 fold	0.07 fold
O=C(c1ccccc1)n1c(-c2cccc3ccccc23)nc2cc(Br)ccc21 [Compound 691]	2 fold	26 fold	34 fold	1 fold
O=C(c1ccccc1)n1c(-c2cccc(C(F)(F)F)c2)nc2ccc(Cl)cc21 [Compound 789]	1 fold	3 fold	8 fold	0.12 fold
O=c1c2cccc3cccc(c32)c2nc3ccc(Cl)cc3n12 [Compound 363, 7-chloro-3,10-diazapentacyclo[10.7.1.0^2,10.0^4,9.0^16,20]icosa-1(19),2,4(9),5,7,12,14,16(20),17-nonaen-11-one]	4 fold	14 fold	30 fold	0.69 fold
O=C1c2ccccc2-c2nc3ccc(Cl)cc3n21 [Compound 488, 4-chloro-1,8-diazatetracyclo[7.7.0.0^2,7.0^10,15]hexadeca-2,4,6,8,10,12,14-heptaen-16-one]	1 fold	1 fold	4 fold	0.03 fold
COC(=O)c1ccc2c(c1)nc(-c1cccc3ccccc13)n2C(=O)c1ccc(Cl)cc1Cl [Compound 1328]	1 fold	2 fold	11 fold	0.07 fold
O=C(c1ccccc1)n1c(-c2cc3ccccc3o2)nc2ccc(Cl)cc21 [Compound 588]	1 fold	5 fold	30 fold	0.33 fold
N#Cc1ccc(C(=O)c2c[nH]c3ccc(Cl)cc23)cc1 [Compound 874]	1 fold	7 fold	52 fold	0.13 fold
O=C(C1CCCCC1)n1c(-c2cccc3ccccc23)nc2cc(Cl)ccc21 [Compound 866]	1 fold	34 fold	50 fold	1.17 fold
COC(=O)c1ccc2nc(-c3cccc4ccccc34)n(S(=O)(=O)c3ccc(C#N)cc3)c2c1 [Compound 1362]	5 fold	3 fold	18 fold	0.1 fold
COc1ccc(C(=O)n2c(-c3cc4ccccc4s3)nc3ccc(Cl)cc32)cc1 [Compound 591]	2 fold	2 fold	38 fold	0.13 fold
O=C(c1ccc(F)c(F)c1)n1c(-c2cccc3ccccc23)nc2ccc(OC(F)(F)F)cc21 [Compound 700]	1 fold	16 fold	22 fold	0.62 fold
Fc1ccc(-n2c(-c3cccc4ccccc34)nc3cc(Cl)ccc32)nc1 [Compound 854, 5-chloro-1-(5-fluoropyridin-2-yl)-2-(naphthalen-1-yl)-1H-benzo[d]imidazole]	1 fold	1 fold	4 fold	0.03 fold
COC(=O)c1ccc2c(c1)nc(-c1cccc3ccccc13)n2Cc1ccc(F)c(F)c1 [Compound 1338]	1 fold	1 fold	2 fold	0.03 fold

Structure (SMILES)	Fold @ 1 nM	Fold @ 100 nM	Fold @ 10 uM	Fold relative to benchmark @ 100 nM
Fc1ccc(Cn2c(-c3cccc4ccccc34)nc3cc(Cl)ccc32)cc1F [Compound 887]	1 fold	1 fold	14 fold	0.02 fold
O=C(c1ccc(F)c(F)c1)n1c(-c2cccc3ccccc23)nc2cc(F)ccc21 [Compound 630]	1 fold	5 fold	9 fold	0.56 fold
O=C(c1ccc2nc(-c3cccc4ccccc34)n(Cc3ccc(F)cc3)c2c1)N1CCOCC1 [Compound 1404]	1 fold	1 fold	6 fold	0.03 fold
O=C(c1ccc2nc(-c3cccc4ccccc34)n(S(=O)(=O)c3ccc4ccccc4c3)c2c1)N1CCOCC1 [Compound 1389]	1 fold	1 fold	3 fold	0.03 fold
CN1CCN(C(=O)c2ccc3nc(-c4cccc5ccccc45)n(Cc4ccc(F)c(F)c4)c3c2)CC1 [Compound 1365]	1 fold	1 fold	2 fold	0.03 fold
COC(=O)c1ccc2nc(-c3cccc4ccccc34)n(S(=O)(=O)c3ccc(C(F)(F)F)cc3)c2c1 [Compound 1402]	1 fold	2 fold	3 fold	0.07 fold
O=C(c1ccccc1)n1c(-c2ccc(F)cc2)nc2ccc(Cl)cc21 [Compound 493]	1 fold	1 fold	16 fold	0.03 fold
O=C(c1ccc(F)c(F)c1)n1c(-c2c3ccccc3cc3ccccc23)nc2ccc(Cl)cc21 [Compound 642]	1 fold	1 fold	27 fold	0.11 fold
COc1ccc2c(c1)nc(-c1cccc3ccccc13)n2C(=O)c1ccccc1 [Compound 639]	1 fold	1 fold	5 fold	0.11 fold
Clc1ccc2c(c1)nc(-c1cccc3ccccc13)n2Cc1ccccc1 [Compound 533, 1-benzyl-5-chloro-2-(naphthalen-1-yl)-1H-benzimidazole]	1 fold	1 fold	13 fold	0.03 fold
Cn1cc(C(=O)c2cccc3ccccc23)c2cc(Cl)ccc21 [Compound 359, (5-chloro-1-methyl-1H-indol-3-yl)(naphthalen-1-yl)methanone]	1 fold	1 fold	6 fold	0.03 fold
COc1ccccc1S(=O)(=O)n1c(-c2cccc3ccccc23)nc2ccc(C(=O)N3CCCCC3)cc21 [Compound 1391]	1 fold	1 fold	1 fold	0.03 fold
O=C(c1ccc(OC(F)(F)F)cc1)n1c(-c2cccc3ccccc23)nc2cc(Cl)ccc21 [Compound 696]	1 fold	22 fold	51 fold	0.85 fold
O=C(c1ccc2c(c1)nc(-c1cccc3ccccc13)n2Cc1cccc2ccccc12)N1CCOCC1 [Compound 1408]	1 fold	1 fold	4 fold	0.03 fold
N#Cc1ccc(S(=O)(=O)n2c(-c3cccc4ccccc34)nc3cc(C(=O)N4CCCCC4)ccc32)cc1 [Compound 1336]	1 fold	1 fold	6 fold	0.03 fold
O=C(c1ccc2nc(-c3cccc4ccccc34)n(Cc3ccc(F)c(F)c3)c2c1)N1CCOCC1 [Compound 1330]	1 fold	1 fold	1 fold	0.03 fold
O=C(c1ccc(F)c(F)c1)n1c(-c2cccc(-c3ccccc3)c2)nc2ccc(Cl)cc21 [Compound 772]	1 fold	1 fold	1 fold	0.04 fold
